Experimental data as given in publication PMC10743564, “Acceleration of Protein Degradation by 20S Proteasome-Binding Peptides Generated by In Vitro Artificial Evolution” (International Journal of Molecular Sciences, 2023).
Where no end group is shown, it is not given here. BAED = biotinylated photoreactive group derived from Sulfo-SBED

How the values were obtained:
[1] = biological target: T1, intracellular proteasomes of U251 cells (Homo sapiens, UniProt P25787+P60900); assay: Intracellular proteasome CT-L activity (Proteasome-Glo) in U251 cells; assay type: cell-based
T1 construct: endogenous in cells; host or cells: U251, RPMI8226, SH-SY5Y
Experimental: Intracellular proteasome activity was measured using the Proteasome-Glo Assay reagent (Promega Co.) according to the manufacturer’s protocol [46].

U251 cells = assay: Cell growth inhibition assay (CellTiter-Glo); assay type: cell-based, human
Experimental: The U251 cell line was kindly provided by Prof. Koji Kawakami (Kyoto University). RPMI8226 and SH-SY5Y cell lines were obtained from RIKEN BRC Cell Bank (Chiba, Japan). U251 and RPMI8226 cells were grown and maintained in RPMI1640 medium (Nacalai Tesque Inc.) supplemented with 10% fetal bovine serum, 100 units/mL penicillin, and 100 μg/mL streptomycin at 37 °C in 5% CO2. SH-SY5Y cells were grown and maintained in DMEM medium (Nacalai Tesque Inc.) supplemented with 10% fetal bovine serum, 100 units/mL penicillin, and 100 μg/mL streptomycin at 37 °C in 5% CO2.
U251, RPMI8226, or SH-SY5Y cells were seeded in triplicate wells in a 96-well plate at a density of 5 × 10^3 cells/well and incubated with various concentrations (0.1–100 µM) of inhibitory compounds dissolved in DMSO for 24 or 48 h. The amount of intracellular ATP was determined by CellTiter-Glo Luminescent Cell Viability Assay (Promega Co.) according to the manufacturer’s protocol. Intracellular proteasome activity was measured using the Proteasome-Glo Assay reagent (Promega Co.) according to the manufacturer’s protocol.

human 20S proteasome = human 20S proteasome (Homo sapiens, UniProt P25787+P60900); assay: Photoaffinity labeling of 20S CP; assay type: binding; conditions: UV 365 nm, 2D-PAGE, LC-MS identification
Experimental: After the reaction, the product was purified by reversed-phase HPLC, and molecular weight was confirmed by mass spectrometry, as described above.
(§1) The reaction mixture was exposed to UV light (365 nm) for 30 min on ice, and proteins were separated by SDS-PAGE, transferred onto a polyvinylidene difluoride membrane (ATTO Co., Ltd., Tokyo, Japan), and probed with horseradish peroxidase-conjugated streptavidin (Cytiva, Danaher Co., Washington, DC, USA). Chemiluminescence images were obtained using an ImageQuant LAS-4000 instrument (Cytiva). Isoelectric focusing for 2D-PAGE was performed using a DiscRun AE-6541 apparatus (ATTO Co., Ltd.) according to the manufacturer’s protocol. To identify the subunits of the 20S CP by LC-MS analysis, all bands visible following CBB staining were excised, dehydrated with acetonitrile for 10 min, and centrifuged in vacuo to dryness. Dried samples were placed in trypsin solution, and hydrolysis was carried out at 37 °C for 16 h. Reaction products were recovered using 0.1% formic acid and analyzed by LC-MS-IT-TOF (Shimadzu Corporation, Kyoto, Japan) and Mascot Version 2.4 (Matrix Science, London, UK).

26S holoenzyme = 26S holoenzyme (Homo sapiens, UniProt P25787+P60900); assay: Photoaffinity labeling of 26S holoenzyme; assay type: binding; conditions: after UV irradiation
Experimental: as §1

| Photoaffinity-labeled subunits of 20S CP (human 20S proteasome) | Photoaffinity labeling of 26S holoenzyme (in words) (26S holoenzyme) | Compound | Effect on CT-L activity of intracellular proteasomes (in words) [1] | Cell death (in words) (U251 cells) |
| --- | --- | --- | --- | --- |
|  |  | CC(C)C[C@H](NC(=O)[C@H](Cc1ccccc1)NC(=O)c1cnccn1)B(O)O [bortezomib] | did not increase CT-L activity to the same degree | induced cancer cell death |
| α1 and β4 subunits | no detectable labeling | BAED-20S-BP1(5-12): photoreactive biotinylated peptide: 20S-BP1(5-12) with N-terminal BAED group, made with Sulfo-SBED ({BAED}-SRLRHWWR) |  |  |
